Assay results taken from ChEMBL document CHEMBL1135344, “Synthesis and antiviral/antiproliferative activity of some N-sulphonylbenzimidazoles” (Bioorg Med Chem Lett, 2002).
Converted amounts (≈) assume the structure as drawn.

Tests used:
[1] = tested on: Human betaherpesvirus 5; test: Antiviral activity was tested against human cytomegalovirus Davis which reduces virus plaque formation by 50%; type: functional, organism-based
[2] = tested on: HEL; test: Minimum cytotoxic concentration against HEL cell morphology.; type: functional; details: Homo sapiens
[3] = tested on: Human betaherpesvirus 5; test: Antiviral activity was tested against human cytomegalovirus AD-169 which reduces virus plaque formation by 50%; type: functional, organism-based
[4] = tested on: HEL; test: Cytotoxic concentration reducing HEL cell growth by 50%.; type: functional; details: Homo sapiens
[5] = tested on: Human alphaherpesvirus 3; test: Antiviral activity was tested against TK- Varicella-Zoster virus 07/1 which reduces virus plaque formation by 50%; type: functional, organism-based
[6] = tested on: Human alphaherpesvirus 3; test: Antiviral activity was tested against TK- Varicella-Zoster virus YS/R which reduces virus plaque formation by 50%; type: functional, organism-based
[7] = tested on: Human alphaherpesvirus 3; test: Antiviral activity was tested against TK+ Varicella-Zoster virus OKA which reduces virus plaque formation by 50%; type: functional, organism-based
[8] = tested on: Human alphaherpesvirus 3; test: Antiviral activity was tested against TK+ Varicella-Zoster virus YS which reduces virus plaque formation by 50%; type: functional, organism-based

SMILES | IC50 [1] | MCC [2] | IC50 [3] | CC50 [4] | IC50 [5] | IC50 [6] | IC50 [7] | IC50 [8]
Nc1ccn(C[C@@H](CO)OCP(=O)(O)O)c(=O)n1.O.O [CIDOFOVIR] | 0.3 µg/mL | > 50 µg/mL | 0.1 µg/mL | > 50 µg/mL | – | – | – | –
Nc1nc2c(ncn2COCCO)c(=O)[nH]1 [ACYCLOVIR] | – | > 50 µg/mL | – | > 200 µg/mL | 6.5 µg/mL (≈ 28.9 µM) | 3.1 µg/mL (≈ 13.8 µM) | 0.35 µg/mL (≈ 1.55 µM) | 0.38 µg/mL (≈ 1.69 µM)
Nc1nc2c(ncn2COC(CO)CO)c(=O)[nH]1 [GANCICLOVIR] | 0.4 µg/mL (≈ 1.57 µM) | > 50 µg/mL | 0.3 µg/mL (≈ 1.18 µM) | > 50 µg/mL | – | – | – | –
O=c1[nH]c(=O)n([C@H]2C[C@H](O)[C@@H](CO)O2)cc1/C=C/Br [BRIVUDINE] | – | > 50 µg/mL | – | > 200 µg/mL | 6.8 µg/mL (≈ 20.4 µM) | 6.4 µg/mL (≈ 19.2 µM) | 0.002 µg/mL (≈ 0.006 µM) | 0.003 µg/mL (≈ 0.00901 µM)
